# Earlier results, collected in US20100047365A1, “WHEAT-GERM OIL CONCENTRATE, A METHOD FOR THE PRODUCTION THEREOF, A METHOD FOR PRODUCING WHEAT-GERM OIL, AND A MEDICINAL AND PROPHYLACTIC COMPOSITION BASED THEREON FOR RESTORATION OF DISORDERS IN SEXUAL FUNCTIONS” (OTKRYTOE AKTSIONERNOE, priority 2006, published 2010).
# Conditions: relative ranking of tocopherol forms
row,Compound,antioxidant activity
1,Cc1cc(O)c(C)c2c1O[C@](C)(CCC[C@H](C)CCC[C@H](C)CCCC(C)C)CC2 [β-tocopherol],0.45
2,Cc1cc(O)cc2c1O[C@](C)(CCC[C@H](C)CCC[C@H](C)CCCC(C)C)CC2 [δ-tocopherol],1.0
3,tocopherol,0.6
4,Cc1c(C)c2c(c(C)c1O)CC[C@@](C)(CCC[C@H](C)CCC[C@H](C)CCCC(C)C)O2 [α-tocopherol],0.3
